Measurements: US8283308B2, “Copolymer-stabilized emulsions” (The Regents of the University of California, priority 2007, dated 2012)

Legend:
Assay type in all cases: physicochemical
[1] = Emulsion droplet sizes from cryo-TEM (CTEM) images
Description: For certain applications, further size separation may be desired. For these applications, we could also use centrifugation to fractionate the emulsion and isolate emulsions of a desired size range. To accomplish such separation, a 1.5 mM K40rL20 emulsion (φ=0.2) that had been passed through the microfluidic homogenizer for six passes (N=6) was placed in a desktop centrifuge set to a low speed of 3,500 rpm (revolutions per minute) for 4 hours. Due to the differences in mass densities of the droplet structures with respect to the continuous liquid phase, the larger droplets rose to the top as a plug more rapidly and could be separated out easily from the extremely dilute suspension of smaller droplets below (i.e. the remnants). We were able to separate out larger droplets that had diameters greater than 300 nm. The remnant suspension had droplet diameters less than 300 nm, therefore, a higher speed centrifuge was needed to further fractionate the sizes of the droplets. The remnant suspension was placed in an ultracentrifuge and centrifuged […] at 20,000 rpm.
A 1.5 mM K40rL20 emulsion (prepared as above) was centrifuged in a 15 mL plastic centrifuge tube for 24 h at 3,500 rpm using an IEC HN-S tabletop centrifuge. A 0.5 mm plug formed, and was separated from the remnants. A plug was formed at the top of the tube (droplet sizes >300 nm, by cryo-TEM), due the different densities of silicone oil and water (0.973 g/mL for 10 cSt PDMS silicone oil vs. 1.0 g/mL for water). The plug was isolated from the rest of the sample, designated as primary remnants, and these primary remnants were further fractionated at 20,000 rpm for 4 hrs using a Beckman L8-55 ultracentrifuge. A plug formed on the top of the suspension (droplet sizes ranging from 30 nm to 200 nm, by cryo-TEM) along with droplets remaining in suspension as secondary remnants (droplet sizes ranging from 10 nm to 30 nm, by cryo-TEM).
Each emulsion sample was diluted tenfold with DI water prior to imaging. An aliquot of each sample (5 μL) was then placed on a carbon grid. The grid was loaded into a Vitrobot (FEI) automated vitrification device for automated sample blotting and vitrification in liquid ethane. The grid was stored under liquid nitrogen and then placed, using a cold stage, in a Phillips Tecnai F20 electron microscope with an accelerating voltage of 120 kV. Images were obtained on a Teitz SCX slow-scan CCD detector coupled to the Leginon software package.
PDMS silicone oil (10 cSt) was added to give the desired volume fraction A of oil to the continuous phase (0.05<φ<0.50). A microscale emulsion (i.e. “premix” emulsion) was prepared by either mixing for 1 minute using a handheld homogenizer (IKA Ultra-Turrax T8 with the S8N-8G dispersing element) or by mixing for 10 seconds using a handheld ultrasonic tip homogenizer (Cole-Parmer 4710 Series Model ASI at an output of 35-40%). This emulsion was then passed through a M-110S Microfluidizer® Processor with a 75 μm stainless steel/ceramic interaction chamber and an input air pressure p=130 psi. The emulsion was collected at the product outlet, and then passed through the microfluidic homogenizer repeatedly for a total of six passes (N=6), which decreased the average droplet radius (e.g. of the single droplets in a simple emulsion and of the outer and inner droplets in a double emulsion) and increased the monodispersity of the droplets in the emulsions. A similar protocol was used for emulsions generated using other block copolypeptide surfactants (Table 1. FIGS. 7A-7C). The ratio given by the inner droplet radius divided by the outer droplet radius (labeled as “I/O ratio”) was relatively uniform for different hydrophobic chain lengths at approximately 0.5 (Table 1, FIG. 7D). Other amphiphilic block copolypeptides, where either the lysine or leucine domains were substituted with different hydrophilic or hydrophobic residues, respectively, were also found to form double emulsions (FIGS. 8A-8D).

[2] = Emulsion droplet size by dynamic light scattering (DLS); settings: N=6, p=130 psi, φ=0.20
Description: The diameters of emulsion droplets were estimated by dynamic light scattering (DLS) with a Photocor-FC board and software. The samples were diluted to obtain an intensity reading of between 1×10^5 and 6×10^5. Each measurement was performed at a scattering angle of 90° for 500 seconds, with linear channel spacing and an adjustable baseline. The fitting procedure used was cumulant analysis with an adjustable baseline to fit the data and calculate average droplet radii.

[3] = Critical aggregation concentration by pyrene fluorescence; settings: pyrene fluorescence at 20° C.
[4] = Emulsification activity, emulsion type and stability
Description: The freeze-dried K40rL10 copolypeptide was first dissolved in de-ionized water at the desired concentration. The range of block copolypeptide concentrations, C, varied from 1.0×10^−4 mM to 1.7 mM. Silicone oil (10 cSt, Gelest PDMS) was added to give the desired volume fraction φ of oil to the continuous phase (0.01≦φ≦0.8). A premix emulsion was prepared by applying shear using either a handheld homogenizer (IKA Ultra-Turrax T8 with the S8N-8G dispersing element) or a handheld ultrasonic homogenizer (Cole-Palmer 4710 Series Model ASI at an output of 35-40%). This premix emulsion was then passed through a M-110S Microfluidizer® Processor with a 75 μm stainless steel/ceramic interaction chamber and an input air pressure p=130 psi. The emulsion was collected at the product outlet of the microfluidic homogenizer, and then passed through the microfluidic homogenizer five more passes (N=6 total), which decreased the average droplet radius and increased the monodispersity of the sample. We have formed double emulsions of copolypeptide, water, and various oils other than 10 cSt and 100 cSt silicone oil, including soybean oil and methyl oleate.
Diblock copolypeptides were screened for emulsification activity by adding PDMS silicone oil to aqueous Kx(rac-L)y solutions (Table 1, FIGS. 2A-2B, 11A). […]

[5] = Oil/water interfacial tension, Du Nouy ring method; settings: 10 cSt PDMS / 0.1 mM block copolypeptide solution, pull rate 0.01 mm/s, 25° C.
[6] = sample fractionated from larger droplets by centrifugation followed by ultracentrifugation

## Poly(L-lysine-HBr)40-b-poly(rac-leucine)20 [K40(rac-L)20]
[1]; 1.5 mM emulsion, 3,500 rpm
  droplet diameters of remnant suspension after low speed centrifugation: less than 300 nm
[1]; after passage six times through microfluidic homogenizer
  droplet diameters: ten to a few hundred
[1]; average of at least 50 droplets from CTEM, N=6, p=130 psi, C=1.0 mM, φ=0.20
  Inner/Outer Diameter Ratio: 0.57
[1]; outer droplets, average of at least 50 droplets from CTEM, microfluidic homogenizer N=6, p=130 psi, C=1.0 mM, φ=0.20
  Droplet Diameter (nm): 120 nm
[1]; [6]
  Droplet Diameter (nm): 60 nm
  Inner/Outer Diameter Ratio: 0.45
[1]; ultrasonic homogenization
  smallest double emulsion droplets, diameter: ca. 400 nm
[2]; copolypeptide concentration 0.1 mM
  average droplet radius: about 400 nm
[2]; copolypeptide concentration 1.5 mM
  average droplet radius: about 160 nm
[3]
  CAC: 970 nM
[4]; PDMS silicone oil, microscopy / cryo-TEM
  type of emulsion formed: formation of double emulsions
[4]; dodecane, soybean oil, methyl oleate, 1 mM in water
  emulsification of other immiscible liquids: gave emulsions
[5]
  Interfacial Tension (dyne/cm): 25.3 dyne/cm
